Laboratory results as given in patent US9693556B2, “Herbicidal pyridazinone derivatives” (SYNGENTA LIMITED, priority 2011, dated 2017).

Tests used:
Format in all cases: in vivo
[1] = test system: Echinochloa crus-galli (ECHCG); experiment: Pre-emergence herbicidal glasshouse test on Echinochloa crus-galli; conditions: pre-emergence; 1000 g/h; evaluated after 13 days
Procedure, shortened: (§1)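 Herbicidal damage was rated 13 days after treatment on a five-point scale, where 5 denotes 80-100% and 1 denotes 0-19% damage. Spraying at 1000 g/h followed sowing by one day (pre-emergence) or eight days (post-emergence).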

[2] = test system: Echinochloa crus-galli (ECHCG); experiment: Post-emergence herbicidal glasshouse test on Echinochloa crus-galli; conditions: post-emergence; 1000 g/h; evaluated after 13 days
Procedure, shortened: as §1

[3] = test system: Amaranthus retoflexus (AMARE); experiment: Post-emergence herbicidal glasshouse test on Amaranthus retoflexus; conditions: post-emergence; 1000 g/h; evaluated after 13 days
Procedure, shortened: as §1

[4] = test system: Amaranthus retoflexus (AMARE); experiment: Pre-emergence herbicidal glasshouse test on Amaranthus retoflexus; conditions: pre-emergence; 1000 g/h; evaluated after 13 days
Procedure, shortened: as §1

[5] = test system: Alopecurus myosuroides (ALOMY); experiment: Post-emergence herbicidal glasshouse test on Alopecurus myosuroides; conditions: post-emergence; 1000 g/h; evaluated after 13 days
Procedure, shortened: as §1

[6] = test system: Alopecurus myosuroides (ALOMY); experiment: Pre-emergence herbicidal glasshouse test on Alopecurus myosuroides; conditions: pre-emergence; 1000 g/h; evaluated after 13 days
Procedure, shortened: as §1

Setaria faberi (SETFA) [7] = experiment: Post-emergence herbicidal glasshouse test on Setaria faberi; conditions: post-emergence; 1000 g/h; evaluated after 13 days
Procedure, shortened: as §1

[8] = test system: Ipomoea hederacea (IPOHE); experiment: Pre-emergence herbicidal glasshouse test on Ipomoea hederacea; conditions: pre-emergence; 1000 g/h; evaluated after 13 days
Procedure, shortened: as §1

Solanum nigrum (SOLNI) [9] = experiment: Post-emergence herbicidal glasshouse test on Solanum nigrum; conditions: post-emergence; 1000 g/h; evaluated after 13 days
Procedure, shortened: as §1

Solanum nigrum (SOLNI) [10] = experiment: Pre-emergence herbicidal glasshouse test on Solanum nigrum; conditions: pre-emergence; 1000 g/h; evaluated after 13 days
Procedure, shortened: as §1

Setaria faberi (SETFA) [11] = experiment: Pre-emergence herbicidal glasshouse test on Setaria faberi; conditions: pre-emergence; 1000 g/h; evaluated after 13 days
Procedure, shortened: as §1

[12] = test system: Ipomoea hederacea (IPOHE); experiment: Post-emergence herbicidal glasshouse test on Ipomoea hederacea; conditions: post-emergence; 1000 g/h; evaluated after 13 days
Procedure, shortened: as §1

SMILES	PRE Application ECHCG herbicidal damage (five point scale) [1]	POST Application ECHCG herbicidal damage (five point scale) [2]	POST Application AMARE herbicidal damage (five point scale) [3]	PRE Application AMARE herbicidal damage (five point scale) [4]	POST Application ALOMY herbicidal damage (five point scale) [5]	PRE Application ALOMY herbicidal damage (five point scale) [6]	POST Application SETFA herbicidal damage (five point scale) (Setaria faberi (SETFA) [7])	PRE Application IPOHE herbicidal damage (five point scale) [8]	POST Application SOLNI herbicidal damage (five point scale) (Solanum nigrum (SOLNI) [9])	PRE Application SOLNI herbicidal damage (five point scale) (Solanum nigrum (SOLNI) [10])	PRE Application SETFA herbicidal damage (five point scale) (Setaria faberi (SETFA) [11])	POST Application IPOHE herbicidal damage (five point scale) [12]
CC(C)n1ncc(-c2c(Cl)cccc2Cl)c(O)c1=O [Compound 1.016]	1 (1=0-19% damage)	2 (2=20-39% damage)	5 (5=80-100% damage)	1 (1=0-19% damage)	2 (2=20-39% damage)	1 (1=0-19% damage)	3 (3=40-59% damage)	1 (1=0-19% damage)	3 (3=40-59% damage)	1 (1=0-19% damage)	1 (1=0-19% damage)	2 (2=20-39% damage)
Cc1c(-c2cnn(C)c(=O)c2O)ccc(S(C)(=O)=O)c1C1=NOCC1 [Compound 1.018]	5 (5=80-100% damage)	5 (5=80-100% damage)	5 (5=80-100% damage)	5 (5=80-100% damage)	4 (4=60-79% damage)	2 (2=20-39% damage)	5 (5=80-100% damage)	5 (5=80-100% damage)	5 (5=80-100% damage)	5 (5=80-100% damage)	4 (4=60-79% damage)	5 (5=80-100% damage)
Cn1ncc(-c2ccc(S(C)(=O)=O)c(F)c2Cl)c(O)c1=O [Compound 1.021]	5 (5=80-100% damage)	5 (5=80-100% damage)	5 (5=80-100% damage)	5 (5=80-100% damage)	1 (1=0-19% damage)	2 (2=20-39% damage)	1 (1=0-19% damage)	2 (2=20-39% damage)	5 (5=80-100% damage)	1 (1=0-19% damage)	1 (1=0-19% damage)	5 (5=80-100% damage)
Cn1ncc(-c2ccccc2C#N)c(O)c1=O [Compound 1.022]	1 (1=0-19% damage)	1 (1=0-19% damage)	2 (2=20-39% damage)	1 (1=0-19% damage)	1 (1=0-19% damage)	1 (1=0-19% damage)	1 (1=0-19% damage)	1 (1=0-19% damage)	3 (3=40-59% damage)	1 (1=0-19% damage)	1 (1=0-19% damage)	1 (1=0-19% damage)
